Reference: patent publication US12059420B2 (BRISTOL-MYERS SQUIBB COMPANY, priority 2018, dated 2024)
pIC50: −log10 of the molar value.

What follows are compounds tested against T1, human IDO1 (Homo sapiens, UniProt P14902) (assay: IDO inhibition assay in HEK293 cells stably expressing human IDO1 (kynurenine production, Ehrlich reagent, absorbance 490 nm)). Settings: 20 hours incubation with compound, 500 nM reference standard = 100% inhibition, read-out: IDO1 HEK Human IC50.
T1 construct: expressed in transfected cells
T1 sequence (P14902 whole entry): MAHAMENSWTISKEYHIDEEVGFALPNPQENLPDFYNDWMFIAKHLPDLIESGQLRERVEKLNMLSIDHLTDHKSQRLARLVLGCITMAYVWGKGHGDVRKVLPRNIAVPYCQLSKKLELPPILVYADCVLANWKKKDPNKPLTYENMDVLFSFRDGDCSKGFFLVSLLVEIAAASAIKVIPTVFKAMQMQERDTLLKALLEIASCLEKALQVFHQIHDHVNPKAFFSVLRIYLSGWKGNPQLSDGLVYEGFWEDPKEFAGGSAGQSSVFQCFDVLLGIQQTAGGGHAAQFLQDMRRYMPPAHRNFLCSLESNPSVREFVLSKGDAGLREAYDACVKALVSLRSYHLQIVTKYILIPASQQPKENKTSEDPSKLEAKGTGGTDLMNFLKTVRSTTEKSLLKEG
Type: cell-based
Summary of the method: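 HEK293 clones stably expressing human IDO1 (10,000 cells/well, phenol red-free RPMI, 10% FBS) were treated with compound for 20 hours at 37° C. After 0.2% TCA and 30 min at 50° C., kynurenine was read with Ehrlich reagent at 490 nm. IC50 was normalised to DMSO (0%) and 500 nM reference standard (100%).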
In the case of `CC(C)CN(Cc1ccccc1)c1cc(Nc2nc3ccc(F)cc3s2)cc(-c2ccccc2-c2nnn[nH]2)n1` [Example 156, 6-(2-(1H-tetrazol-5-yl)phenyl)-N2-benzyl-N4-(6-fluorobenzo[d]thiazol-2-yl)-N2-isobutylpyridine-2,4-diamine], the pIC50 was 6.94. In the case of `CCN(Cc1ccccc1)c1cc(NC(=O)Nc2ccc3c(c2)OCO3)cc(-c2ccccc2-c2nnn[nH]2)n1` [Example 278], the pIC50 was 6.32. With `Cc1ccc(CC(=O)Nc2cc(-c3ccccc3-c3nnn[nH]3)nc(N(CC(C)C)C3CCCCC3)n2)cc1` [Example 3, N-(6-(2-(1H-tetrazol-5-yl)phenyl)-2-(cyclohexyl(isobutyl)amino)pyrimidin-4-yl)-2-(p-tolyl)acetamide] the pIC50 was 7.58. `CCCN(Cc1ccccc1)c1cc(NC(=O)Cc2ccc(C#N)cc2)cc(-c2ccccc2-c2nn[nH]n2)n1` [Example 290, N-(2-(2-(1H-Tetrazol-5-yl)phenyl)-6-(benzyl(propyl)amino)pyridin-4-yl)-2-(4-cyanophenyl)acetamide] gave a pIC50 of 6.32. For `CCCN(CC1CC1)c1cc(Nc2ncc(C(F)(F)F)cn2)cc(-c2ccccc2-c2nnn[nH]2)n1` [Example 84], the pIC50 was 6.43.
